The source of these data is patent publication US20180215781A1, “BETUIN DERIVATIVES FOR PREVENTING OR TREATING HIV INFECTIONS” (GLAXOSMITHKLINE INTELLECTUAL PROPERTY (NO.2) LIMITED, priority 2015, published 2018).

One experiment concerns HIV. Conditions: cited from earlier work.
In another experiment the test system is NL4-3 wt. Nature of the experiment: MT4 Cell Antiviral Assay, NL4-3 wt. The class given is cell-based, HIV-1. Conditions: Human immunodeficiency virus 1, NL43, HIV MT4 Antiviral Cell Assay of Example 11.
The test system of the next experiment is V370A. Nature of the experiment: MT4 Cell Antiviral Assay, V370A. Conditions: Human immunodeficiency virus 1, MT4, read-out: EC50V370A. It is filed as cell-based, HIV-1.

Counter-ions that a name gives are not always drawn.

Turning to `C=C(C)[C@@H]1CC[C@]2(C(=O)O)CC[C@]3(C)[C@H](CC[C@@H]4[C@@]5(C)CC[C@H](OC(=O)CC(C)(C)C(=O)O)C(C)(C)[C@@H]5CC[C@]43C)[C@@H]12` [Bevirimat], the “reduced HIV viral load, mean” value in the experiment with HIV (patients with trough levels >=20 μg/mL and without key baseline Gag polymorphisms at Q369, V370 or T371) is given as 1.3 log10/mL. Also, the “viral load reductions versus patients without Gag polymorphisms” value with HIV (users with Gag polymorphisms at Q369, V370 or T371) is “significantly lower load reductions”.

Turning to `COCC(=O)N(CC1CC1)C[C@H](O)[C@@]12CC[C@]3(C)[C@H](CC[C@@H]4[C@@]5(C)CC=C(C6=CCC(C(=O)O)CC6)C(C)(C)[C@@H]5CC[C@]43C)C1=C(C(C)C)C(=O)C2` (stereo partly drawn) [Example 1, 4-((3aR,5aR,5bR,7aR,11aS, 11bR,13aS)-3a-((R)-2-(N-(cyclopropylmethyl)-2-methoxyacetamido)-1-hydroxyethyl)-1-isopropyl-5a,5b,8,8,11a-pentamethyl-2-oxo-3,3a,4,5,5a,5b,6,7,7a,8, 11,11a,11b,12,13,13a-hexadecahydro-2H-cyclopenta[a]chrysen-9-yl)cyclohex-3-enecarboxylic acid], the figures for the EC50 in the experiment with NL4-3 wt and in the experiment on V370A were 7.9 nM and 8.9 nM, respectively.

In the case of `CC(C)C1=C2[C@H]3CC[C@@H]4[C@@]5(C)CC=C(C6=CCC(C(=O)O)CC6)C(C)(C)[C@@H]5CC[C@@]4(C)[C@]3(C)CC[C@@]2([C@@H](O)CN(CC2CC2)C(=O)CN(C)C)CC1=O` (stereo partly drawn) [Example 2, 4-((3aR,5aR,5bR,7aR,11aS, 11bR,13aS)-3a-((R)-2-(N-(cyclopropylmethyl)-2-(dimethylamino)acetamido)-1-hydroxyethyl)-1-isopropyl-5a,5b,8,8,11a-pentamethyl-2-oxo-3,3a,4,5,5a,5b,6,7,7a,8, 11,11a,11b,12,13,13a-hexadecahydro-2H-cyclopenta[a]chrysen-9-yl)cyclohex-3-enecarboxylic acid], the results for the EC50 in the experiment on NL4-3 wt and with V370A were 5.4 nM and 11.2 nM, respectively.

`CC(C)C1=C2[C@H]3CC[C@@H]4[C@@]5(C)CC=C(C6=CCC(C(=O)O)CC6)C(C)(C)[C@@H]5CC[C@@]4(C)[C@]3(C)CC[C@@]2([C@@H](O)CN(CC2CC2)C(=O)CN2CCCC2)CC1=O` (stereo partly drawn) [Example 3, 4-((3aR,5aR,5bR,7aR,11aS, 11bR,13aS)-3a-((R)-2-(N-(cyclopropylmethyl)-2-(pyrrolidin-1-yl)acetamido)-1-hydroxyethyl)-1-isopropyl-5a,5b,8,8,11a-pentamethyl-2-oxo-3,3a,4,5,5a,5b,6,7,7a,8, 11,11a,11b,12,13,13a-hexadecahydro-2H-cyclopenta[a]chrysen-9-yl)cyclohex-3-enecarboxylic acid]: the values for the EC50 in the experiment on NL4-3 wt and with V370A were 3.3 nM and 3.7 nM, respectively.

`CC(C)C1=C2[C@H]3CC[C@@H]4[C@@]5(C)CC=C(C6=CCC(C(=O)O)CC6)C(C)(C)[C@@H]5CC[C@@]4(C)[C@]3(C)CC[C@@]2([C@@H](O)CN(CC2CC2)C(=O)CN2CCCC2=O)CC1=O` (stereo partly drawn) [Example 4, 4-((3aR,5aR,5bR,7aR,11aS, 11bR,13aS)-3a-((R)-2-(N-(cyclopropylmethyl)-2-(2-oxopyrrolidin-1-yl)acetamido)-1-hydroxyethyl)-1-isopropyl-5a,5b,8,8,11a-pentamethyl-2-oxo-3,3a,4,5,5a,5b,6,7,7a,8, 11,11a,11b,12,13,13a-hexadecahydro-2H-cyclopenta[a]chrysen-9-yl)cyclohex-3-enecarboxylic acid]: the EC50 in the experiment with NL4-3 wt came to 7.1 nM; in the experiment on V370A, 20.9 nM.

With `COCC(=O)N(CC1CCC1)C[C@H](O)[C@@]12CC[C@]3(C)[C@H](CC[C@@H]4[C@@]5(C)CC=C(C6=CCC(C(=O)O)CC6)C(C)(C)[C@@H]5CC[C@]43C)C1=C(C(C)C)C(=O)C2` (stereo partly drawn) [Example 6, 4-((3aR,5aR,5bR,7aR,11aS, 11bR,13aS)-3a-((R)-2-(N-(cyclobutylmethyl)-2-methoxyacetamido)-1-hydroxyethyl)-1-isopropyl-5a,5b,8,8,11a-pentamethyl-2-oxo-3,3a,4,5,5a,5b,6,7,7a,8, 11,11a,11b,12,13,13a-hexadecahydro-2H-cyclopenta[a]chrysen-9-yl)cyclohex-3-enecarboxylic acid], the EC50 in the experiment with NL4-3 wt worked out at 10 nM; in the experiment on V370A, 20.4 nM.

As for `CC(C)C1=C2[C@H]3CC[C@@H]4[C@@]5(C)CC=C(C6=CCC(C(=O)O)CC6)C(C)(C)[C@@H]5CC[C@@]4(C)[C@]3(C)CC[C@@]2([C@@H](O)CN(CC2CCC2)C(=O)CN2CCCC2)CC1=O` (stereo partly drawn) [Example 7, 4-((3aR,5aR,5bR,7aR,11aS, 11bR,13aS)-3a-((R)-2-(N-(cyclobutylmethyl)-2-(pyrrolidin-1-yl)acetamido)-1-hydroxyethyl)-1-isopropyl-5a,5b,8,8,11a-pentamethyl-2-oxo-3,3a,4,5,5a,5b,6,7,7a,8, 11,11a,11b,12,13,13a-hexadecahydro-2H-cyclopenta[a]chrysen-9-yl)cyclohex-3-enecarboxylic acid], the EC50 with NL4-3 wt is 5.8 nM; in the experiment on V370A, 4.1 nM.

For the compound `CC(C)C1=C2[C@H]3CC[C@@H]4[C@@]5(C)CC=C(C6=CCC(C(=O)O)CC6)C(C)(C)[C@@H]5CC[C@@]4(C)[C@]3(C)CC[C@@]2([C@@H](O)CN(CCN(C)C)Cc2ccc(Cl)cc2)CC1=O` (stereo partly drawn) [Example 9, 4-((3aR,5aR,5bR,7aR,11aS, 11bR,13aS)-3a-((R)-2-((4-chlorobenzyl)(2-(dimethylamino)ethyl)amino)-1-hydroxyethyl)-1-isopropyl-5a,5b,8,8,11a-pentamethyl-2-oxo-3,3a,4,5,5a,5b,6,7,7a,8, 11,11a,11b,12,13,13a-hexadecahydro-2H-cyclopenta[a]chrysen-9-yl)cyclohex-3-enecarboxylic acid dihydrochloride], the EC50 stood at 6.8 nM in the experiment with NL4-3 wt and 10.7 nM in the experiment on V370A.

For the compound `CC(C)C1=C2[C@H]3CC[C@@H]4[C@@]5(C)CC=C(C6=CCC(C(=O)O)CC6)C(C)(C)[C@@H]5CC[C@@]4(C)[C@]3(C)CC[C@@]2([C@@H](O)CNCC2CC2)CC1=O` (stereo partly drawn) [Example 10, 4-((3aR,5aR,5bR,7aR,11aS, 11bR,13aS)-3a-((R)-2-((cyclopropylmethyl)amino)-1-hydroxyethyl)-1-isopropyl-5a,5b,8,8,11a-pentamethyl-2-oxo-3,3a,4,5,5a,5b,6,7,7a,8, 11,11a,11b,12,13,13a-hexadecahydro-2H-cyclopenta[a]chrysen-9-yl)cyclohex-3-enecarboxylic acid], the EC50 in the experiment on NL4-3 wt was determined as 9.3 nM; with V370A, 25100 nM.
